Measurements published in paper PMC5494507, “γ‐Secretase inhibitors in cancer clinical trials are pharmacologically and functionally distinct” (EMBO Molecular Medicine, 2017).

How the values were obtained:
SPPL2a, SPPL2b, and SPP = assay: Cell-based SPPLs cleavage assay, HEK 293t cells co-transfected with FBA and SPPLs (ELISA); conditions: 1 μM, HEK 293t co-transfected with SPPLs and FBA
Method: (§1) It is known that SPP/SPPLs can be inhibited by select GSIs (Ran et al, 2015). Here, we tested the effect of various GSIs on the SPP/SPPL family members SPPL2a, SPPL2b, and SPP. We co‐transfected SPPLs with the BRI2 based chimeric SPP/SPPL substrate that we have referred to as FBA into HEK 293t cells. SPPL‐specific inhibitor (ZLL)2‐ketone was used as positive control. DAPT was not tested here as we and others have previously reported it had no effect on SPP activity at concentration up to 100 μM (Weihofen et al, 2003). […] Dose responses of BMS‐906024, RO4929097, and PF‐3084014 were performed with a similar strategy, but a stable SPPL2b/FBA overexpressing HEK 293 cell line was used instead of transient transfection (Fig 8B). […] Table 3 compares the GSIs’ potencies on γ‐secretase and SPPL2b. The average of IC50s on cNOTCH1sub, cNOTCH2sub, cNOTCH4sub, and APP was used as the GSI's potency on γ‐secretase.
(§2) SPPL2a, SPPL2b, SPP, and chimeric substrate FBA were generated as previously described (Ran et al, 2015). A20 cells (TIB‐208; ATCC, Manassas, VA, USA) were cultured in RPMI‐1640 medium (ATCC) supplied with 10% fetal bovine serum, 1% penicillin/streptomycin, and 0.05 mM 2‐mercaptoethanol (Life Technologies). Various concentrations of GSIs and (ZLL)2‐ketone as indicated in figures were applied to transfected HEK 293t cells at 70–90% confluence or A20 cells at a density of 5 × 10^5 cells/ml with fresh media in 48‐well format for 16 h. Cells and conditioned media were used for WB, IP, and ELISA.
(§3) Sandwich ELISAs used for Aβ detection were performed as previously described (Murphy et al, 1999; Ran et al, 2014). Briefly, Aβ and Aβ‐like peptides in conditioned media were captured with Ab5 antibody and detected with horseradish peroxidase labeled mAb 4G8 (Biolegend). Synthetic Aβ1‐40 was used as standard. All ELISAs were developed with TMB substrate (KPL, Gaithersburg, Maryland, USA). Bis‐Tris precast gels (Biorad, Hercules, CA, USA) were used for all SDS–PAGE. Monoclonal anti‐FLAG M2 antibody (Sigma) and Aβ1‐16 antibody 6E10 (Covance) were used for Western blotting at 1:1,000 dilution. Anti‐CD74 In‐1 antibody (BD Bioscience, San Jose, CA, USA) was used for A20 cell lysate Western blotting at dilution of 1:1,000. MDA‐MB‐231 cell extracts were prepared by lysing cells in RIPA buffer containing protease and phosphatase inhibitors. The lysates were kept on ice for 30 min and vortexed every 10 min, and then centrifuged at 4°C for 10 min at 1,000 g. The supernatants were collected, and protein concentrations were determined by Bradford Assay. Pan‐NOTCH1 antibody (C‐20) (Santa Cruz Biotechnology) and cleaved NOTCH1 (Val1744) antibody ([…]) were used at 1:500 and 1:100 dilution in the test of endogenous NOTCH1 inhibition with β‐actin expression used as loading control. β‐actin antibody was used at 1:1,000 dilution (Sigma). Band intensities normalized for actin using densitometry analysis with ImageJ Software (NIH, USA).

NOTCH1 = assay: Endogenous NOTCH1 cleavage inhibition in MDA-MB-231 cells (NICD Western blot after EDTA activation); assay type: cell-based; conditions: for NICD levels at 100 nM: MDA-MB-231, 100 nM
Method: To extend the study to a more physiological system, we assessed endogenous NOTCH1 cleavage inhibition using the triple‐negative breast cancer line MDA‐MB‐231 (Fig 6A). Full‐length blots are shown in source data for Fig 6. NOTCH1 cleavage was detected by Western blotting using the Cell Signaling neo‐epitope NICD antibody. […] The inhibition of endogenous APP in MDA‐MB‐231 cells was also tested by detecting accumulation of APP COOH‐terminal fragments (APP‐CTFs). […] Figure 6D summarized the APP‐CTF band intensities normalized for DMSO group. The original blots are available in source data for Fig 6.
Short‐term endogenous NOTCH1 cleavage inhibition was tested in the triple‐negative breast cancer cell lines MDA‐MB‐231 (ATCC, Manassas, VA). Cells were plated in 60 mm dishes and maintained as monolayer cultures in DMEM medium supplemented with 10% FBS, 1% penicillin/streptomycin, 1% L‐glutamine (Life Technologies), and incubated at 37°C in a humidified 5% CO2 incubator. After the cells reached ~75% confluency, cultures were pretreated with GSIs for 1 h in DMEM at 37°C in a 5% CO2 incubator. GSIs were tested at concentrations of 0, 0.1, 0.5, 2.5, and 12.5 μM. Then, EDTA (5 mM, Life Technologies) was added to the cell cultures to induce Notch activation for 5 min. Following incubation, cell extracts were prepared by lysing cells in RIPA buffer (Santa Cruz Biotechnology) containing protease and phosphatase inhibitors. Western blotting was performed using Cleaved NOTCH1 (Val1744) antibody (Cell Signaling) with β‐actin (Santa Cruz Biotechnology) as loading control. Band intensities were normalized for actin using ImageJ Software (NIH, USA).
as §3

SPPL2b = biological target: T1, SPPL2b (Homo sapiens, UniProt Q8TCT7); assay: Cell-based SPPL2b cleavage assay, stable SPPL2b/FBA overexpressing HEK 293 cell line (ELISA); conditions: 16 h
T1 construct: expressed in transfected cells
T1 sequence (Q8TCT7 26-592): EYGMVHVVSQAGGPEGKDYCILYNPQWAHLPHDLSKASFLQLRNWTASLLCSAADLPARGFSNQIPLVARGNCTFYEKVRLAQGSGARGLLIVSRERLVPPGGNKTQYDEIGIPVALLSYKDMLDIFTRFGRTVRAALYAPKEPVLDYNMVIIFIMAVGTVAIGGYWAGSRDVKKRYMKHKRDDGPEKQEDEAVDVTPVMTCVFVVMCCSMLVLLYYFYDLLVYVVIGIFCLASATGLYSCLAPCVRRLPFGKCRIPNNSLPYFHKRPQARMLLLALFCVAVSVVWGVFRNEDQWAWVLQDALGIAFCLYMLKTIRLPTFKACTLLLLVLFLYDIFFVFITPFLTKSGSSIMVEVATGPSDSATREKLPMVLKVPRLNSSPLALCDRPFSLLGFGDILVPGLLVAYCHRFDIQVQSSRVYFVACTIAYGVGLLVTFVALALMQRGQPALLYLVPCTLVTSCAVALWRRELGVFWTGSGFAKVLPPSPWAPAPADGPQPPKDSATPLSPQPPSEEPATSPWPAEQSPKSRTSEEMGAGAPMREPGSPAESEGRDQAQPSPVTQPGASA
Method: as §1, §2
Sandwich ELISAs used for Aβ detection were performed as previously described (Murphy et al, 1999; Ran et al, 2014). Briefly, Aβ and Aβ‐like peptides in conditioned media were captured with Ab5 antibody and detected with horseradish peroxidase labeled mAb 4G8 (Biolegend). Synthetic Aβ1‐40 was used as standard. All ELISAs were developed with TMB substrate (KPL, Gaithersburg, Maryland, USA). Bis‐Tris precast gels (Biorad, Hercules, CA, USA) were used for all SDS–PAGE. […] The supernatants were collected, and protein concentrations were determined by Bradford Assay. […]

| SMILES | SPPLs‐catalyzed cleavage of FBA substrate (SPPL2a, SPPL2b, and SPP) | NICD levels at 100 nM (NOTCH1) | IC50 (SPPL2b) | concentration reducing NICD to background levels or below (NOTCH1; MDA-MB-231) | NICD levels (NOTCH1; MDA-MB-231, 100 nM to 12.5 μM, 1 h pretreatment then 5 mM EDTA 5 min) |
| --- | --- | --- | --- | --- | --- |
| CCC[C@H](N[C@H]1CCc2cc(F)cc(F)c2C1)C(=O)Nc1cn(C(C)(C)CNCC(C)(C)C)cn1 [PF‐3084014] | mild inhibition | reduced NICD to levels equal or lower than baseline | 1160 nM | – | – |
| CC(C)(C(=O)NCC(F)(F)C(F)(F)F)C(=O)N[C@@H]1C(=O)Nc2ccccc2-c2ccccc21 [RO4929097] | efficiently inhibited | reduced NICD to levels equal or lower than baseline | 72.8 nM | – | – |
| O=C(O)CC[C@H]1CC[C@@](c2cc(F)ccc2F)(S(=O)(=O)c2ccc(Cl)cc2)CC1 [MK‐0752] | did not show significant inhibition | – | – | ≥ 0.5 µM | – |
| CN1C(=O)[C@@H](NC(=O)[C@H](CCC(F)(F)F)[C@H](CCC(F)(F)F)C(N)=O)N=C(c2ccccc2)c2ccccc21 [BMS‐906024] | efficiently inhibited | reduced NICD to levels equal or lower than baseline | 28.3 nM | – | – |
| CC(C)[C@H](O)C(=O)N[C@@H](C)C(=O)N[C@@H]1C(=O)N(C)CCc2ccccc21 [Semagacestat] | did not show significant inhibition | – | – | – | reduced NICD concentrations to near‐baseline levels at all concentrations tested |
